Data reported in US9409975B2, “Antibody binding microbial heparin binding motif to retard or prevent microbial biofilm formation on implanted medical devices” (priority 2012, dated 2016).

What was measured:
[1] = system: Candida albicans BWP17 wt; experiment: Percent hyphae by flow cytometry with or without heparin; format: cell-based; settings: 100 units/ml heparin; YPD 30° C. or RPMI-HEPES 37° C.
Procedure: Flow cytometry was performed by inoculating a single colony of BWP17 wt into 3 ml YPD medium and incubating overnight at 30° C. with shaking at 225 rpm. […] One ml aliquots of each mixture were removed, pelleted (7,000 rpm for 3 min), washed twice with PBS, and reconstituted in 1 ml PBS. Flow cytometry analysis was performed using the Imagestream^X flow cytometer (Amnis, Seattle Wash.) equipped with a 405 nm, 488 nm, 653 nm, laser and multi-mag function. The 40× magnification, 10 mm/sec flow rate, and 488 nm laser were used to collect SSC and Brightfield parameters. The flow cell allows particles up to 100 μm wide (height unlimited) to be collected in the instrument. INSPIRE (v.6.0) software was used to acquire events. Software analysis using IDEAS (v5.0) identified percent hyphae using aspect ratio, height and width features using the side scatter (Channel 6) and brightfield (Channel 1) parameters. Objects were selected within each file and tagged to use as identification of truth sets within the population.

[2] = system: C. albicans surface proteins; experiment: nLC-MSMS semi-quantitation of C. albicans surface proteins in supernatants of heparin-treated versus untreated organisms; format: cell-based, Candida albicans
Procedure: In other systems, heparin has been reported to cleave surface proteins (56), change protein conformation (57), and bind trypsin-sensitive lysine and arginine residues in histone H1 (58). In order to understand whether incubation with heparin changed the conformation of C. albicans surface proteins, 1×10^7 C. albicans were incubated for one hour at […] on a rotator with pharmacologic heparin (20,000 units/ml) diluted in RPMI-HEPES to a working concentration of 250 units/ml. C. albicans 1×10^7 C. albicans in an equal volume of RPMI-HEPES served as control. Supernatants were removed. 300 μl of Hep+ and Hep− supernatants were incubated with 100 μl avidin agarose beads (Thermo Scientific) for 60 min at room temperature on a rotator in the presence of 50 units heparin (Hep+); an equal volume of RPMI-HEPES was substituted for heparin in the Hep− supernatants. Beads were pelleted, and 100 μl beads were incubated with 100 μl 3.0 M NaCl for 30 mins at room temperature on a rotator. Beads were pelleted and the supernatants were withdrawn; 100 μl TCA was added to 100 μl Hep+ or 100 μl Hep− supernatants and incubated on ice overnight at 4° C. The TCA precipitates were stored at −80° C. until analysis by mass spectroscopy.
Six biological replicates of TCA precipitated protein pellets from equal cellular equivalence of heparin-treated (Hep+) and untreated (Hep−) conditioned medium from cultures of C. albicans were each solubilized in 50 μL Laemmli gel buffer. To remove any residual TCA and to further concentrate the samples, each was subjected to buffer exchange and concentration using an Amicon ultra 3 kDa microfuge filtration cartridge at 14,000×g for 15 min with five subsequent additions of 50 μL of 1× Laemmli gel buffer between spins. The resulting retained proteins (6 Hep+ and 6 Hep−) were subsequently prepared for SDS-PAGE by combining into two pools of three samples for the Hep+ and Hep− conditioned medium. The replicate sample pools were loaded onto two 4-12% mini gels and separated using the MOPS buffer system followed by silver staining to visualize the proteins using the Sigma Proteosilver system. The proteins were prepared for identification and quantitation by mass spectrometry by gridding the gel lanes from the replicates of Hep+ and Hep− samples into 11 equal regions followed by in gel trypsin digestion and extraction of peptides as described (59)
The recovered peptides from the gridded gel sections were analyzed by liquid chromatography coupled nano-electrospray mass spectrometry (nLC-MSMS) on a TripleTOF 5600 mass spectrometer (AB Sciex, Toronto Canada) attached to an Eksigent (Dublin Calif.) nanoLC ultra nanoflow system. […]

[3] = system: C. albicans; experiment: Histatin killing assay after heparin preincubation; format: cell-based, Candida albicans; settings: 500 units/ml heparin, then histatin 5 (15 μM)
Procedure: In order to evaluate the consequences of removal of Ssa1 and Ssa2 (Table 4), both targets of histatin, a histatin killing assay was performed as follows. C. albicans strains were grown to late log phase overnight in YPD. A single colony was suspended in 1 ml YPD, diluted 1:500 into 10 ml YPD, and incubated overnight at 30° C. and 225 rpm to OD600 1.0. Yeast cells were washed twice in PBS and 2×10^4 cells suspended in 250 μl RPMI+10 mM HEPES, pH 7.0, with or without 500 units/ml heparin (Sigma). The cells were incubated at 37° C. for one hour with shaking, washed twice with 10 mM phosphate buffer, pH 7.4, and suspended in 20 μl phosphate buffer. Histatin 5 (final concentration 15 μM; Peptides International) or 10 mM phosphate buffer was added to the preincubated cells (total volume 40 μl) and incubated further at 37° C. for 90 minutes with shaking. YPD (360 ul) was added to each tube, a 40 μl aliquot spread onto YPD plates, and colonies counted after two days. The effect of heparin treatment was determined by the formula % change=[(cfu+heparin)−(cfu−heparin)]/(cfu+heparin).

[4] = heparin 250 units/ml, compared to untreated organisms

## heparin
[1]
  percent hyphae by flow cytometry: did not differ
[2]; [4]
  increase in VPTTDVSVVDLTVR from Tdh3 in supernatants: five-fold increase
  increase in intensity of IDVVDQAK from Eno1 in supernatants: seven-fold increase
  increase in intensity of SLLDAAVK from Pgk1 in supernatants: ten-fold increase
[2]; versus corresponding peptides from untreated organisms, data not shown
  increased intensities of other peptides from Eno1, Pgk1 and Tdh3: 10-16 fold
[3]; INT1 double disruptant
  decrease in histatin-mediated killing: 1.5%
[3]; wild type C. albicans
  decrease in histatin-mediated killing: 25%
